# Patent EP4702986A1, “POLYPEPTIDE AND USE THEREOF” (Biocells (Beijing) Biotech Co., Ltd., priority 2023, dated 2024)
# Numbered stars: 1 amine (or outer) side, 2 acyl side, 3 side chain; on linkers, the order of the positions; unused ones are H or OH. Side chains are listed from the residue outwards. Peptide text beside a SMILES is read from it. * marks the point of attachment. C18 diacid = O=C(O)CCCCCCCCCCCCCCCCC(=O)*; γGlu = O=C(O)[C@H](CCC(=O)[*:2])N[*:1]; Fumaroyl = O=C(O)/C=C/C(=O)*; Lauroyl = CCCCCCCCCCCC(=O)*; AEEA = NCCOCCOCC(=O)O
# Legend:
# SD rats = settings: rat, in vivo
# Method: Male SD rats were anesthetized with isoflurane, and their neck hairs were shaved. A midline incision was made on the neck to expose the trachea. A ventilator and anesthesia machine for small animals were turned on, with concentration of an anesthetic gas set to 1.2, and its exit channel connected to an inlet of the ventilator. Tidal volume of the ventilator was set to 2 mL, the respiratory rate was 90 breaths/minute, and the respiratory ratio was 1:2. An outlet end of the ventilator was connected to a plastic hose, which was inserted into the rat's airway.
# A machine and a software of a biological signal data acquisition and analysis system were turned on. One end of a data acquisition plate was connected to the plastic hose, and the other end was connected to a collector valve connected with a 1-mL syringe. The syringe was filled with heparinized saline, which was injected into the data acquisition plate to expel the air in the entire space until the heparinized saline flowed out from the other end of the plastic hose. The right common carotid arteries of the rats were isolated. A dead knot was made at the distal end and a slipknot at the proximal end of a right common carotid artery. A 1/2-sized incision was made in the artery between the knot with a microscissor, and the plastic hose with heparinized saline was inserted into the incision and fixed to prevent back-and-forth movement. The initial value of the blood pressure was set to zero with the zero-adjustment valve of the biological signal data acquisition and analysis system. The slipknot at the proximal end of the common carotid artery was untied, and real-time blood pressure data of the animal appeared on the software. […] The dosages of IRL1620, BX34, and BX229 were 5 µg/Kg, 42 µg/kg, and 6.6 µg/Kg, respectively.
# rat model of pMACO [1] = assay: Grip strength test in rat model of pMACO; format: in vivo, SD rats; settings: rat, in vivo
# rat model of pMACO [2] = assay: mRS-6 scoring in rat model of pMACO; format: in vivo, SD rats; set-up: mRS-7D / mRS-14D / mRS-21D / mRS-30D: scale not given here; settings: for mRS-7D: day 7; for mRS-14D: day 14; for mRS-21D: day 21; for mRS-30D: day 30
# Text: (§1) Male SD rats, weighing 280-300 g, were used and acclimatized for at least 3 days. Focal cerebral ischemia was induced by middle cerebral artery occlusion with a suture method under isoflurane anesthesia. The animals were placed in a supine position, a midline incision was made, and the right common carotid artery, external carotid artery, and internal carotid artery were exposed. A 4.0 monofilament nylon suture was advanced from the external carotid artery toward the internal carotid artery lumen until resistance was felt (~20 mm), indicating middle cerebral artery occlusion. The nylon filament was allowed to stay in place to create a permanent model of focal cerebral ischemia. The day of modeling was defined as D1, the next day as D2, and so on. Since the experiment was not be completed in a single batch, and in order to prevent accidental errors, all operations in this experiment had to follow the principle of parallel operation, i.e., the experiment on each day needed to include animals from each group. Sequential numbering for surgical modeling was obtained by sorting the animals according to their body weight before the experiment. After the surgery, successfully modeled pMCAO rats were randomly assigned into a model group and various treatment groups. The detailed grouping of the experiment was as follows: (1) 15 rats in the 5 µg/Kg IRL1620 group with 9 administrations over 3 days; (2) 15 rats in the 6.6 µg/Kg BX225 group with 9 administrations over 3 days; (3) 15 rats in the 19.8 µg/Kg BX225 group with 3 administrations over 3 days; (4) 15 rats in the model (normal saline) group; and (5) 6 rats in the sham group (the sham group underwent the same procedure without vascular ligation and suture insertion). The administration was performed via tail vein injection (iv) with an administration volume of 2 mL/kg. The first administration was 2 hours after the surgery. Administration frequencies were single and multiple administrations per day according to the experimental design. Administrations were performed on D1, D3, and D6, respectively, as detailed in Table 22. The model group and the sham group were given the same volume of vehicle normal saline.
# rat model of pMACO [3] = assay: Garcia JH scoring in rat model of pMACO; format: in vivo, SD rats; set-up: 5 min Spontaneous Activity / Body Symmetry / Forelimb Extension Movement / Cage Climbing / Body Tactile Response on Both Sides / Beard Touch Reaction on Both Sides / Total Score: scale not given here; settings: for 5 min Spontaneous Activity / Beard Touch Reaction on Both Sides / Body Symmetry / Body Tactile Response on Both Sides / Cage Climbing / Forelimb Extension Movement / Total Score: Garcia JH score
# Text: as §1
# [4] = 3Time regimen: IRL1620 5 µg/Kg, BX225 6.6 µg/Kg
# [5] = pMCAO rats, 6.6 µg/Kg three-dose group, iv
# [6] = Day 21, 19.8 µg/Kg, 1Time regimen
# [7] = Day 21, 3Time regimen: IRL1620 5 µg/Kg, BX225 6.6 µg/Kg
# [8] = Day 30, 19.8 µg/Kg, 1Time regimen
# [9] = Day 30, 3Time regimen: IRL1620 5 µg/Kg, BX225 6.6 µg/Kg
smiles,measurement,setting,value
CC[C@H](C)[C@H](NC(=O)[C@H](CC(=O)O)NC(=O)[C@H](CCCCNC(=O)COCCOCCNC(=O)COCCOCCNC(=O)CC[C@H](NC(=O)CCCCCCCCCCCCCCCCC(=O)O)C(=O)O)NC(=O)[C@H](Cc1c[nH]cn1)NC(=O)[C@H](C)NC(=O)[C@H](Cc1ccccc1)NC(=O)[C@H](Cc1ccc(O)cc1)NC(=O)[C@@H](NC(=O)[C@H](C)NC(=O)[C@H](CCC(=O)O)NC(=O)[C@H](CCC(=O)O)NC(=O)[C@H](CC(=O)O)NC(=O)/C=C/C(=O)O)C(C)C)C(=O)N[C@H](C(=O)N[C@@H](Cc1c[nH]c2ccccc12)C(=O)O)[C@@H](C)CC [BX-34] (Fumaroyl-DEEAVYFAHK([AEEA-AEEA-γGlu-C18 diacid])DIIW-OH),"maximum extent of decrease in blood pressure, of the baseline blood pressure",SD rats,9.5%±1.7%
same,time to the lowest blood pressure,SD rats,20 to 35 min
same,Maximum percentage of blood pressure reduction relative to baseline blood pressure (n = 3),SD rats; iv,9.5%±1.7%
same,Time from baseline blood pressure to the lowest blood pressure,SD rats; iv,20 to 35 min
same,Grip Strength Test 3D/pre,rat model of pMACO [1],63% ±14%
same,Grip Strength Test 7D/pre,rat model of pMACO [1],67% ±19%
same,Grip Strength Test 24h/pre,rat model of pMACO [1],40% ±24%
CCCCCCCCCCCC(=O)N[C@@H](CCC(=O)NCCOCCOCC(=O)NCCCC[C@H](NC(=O)[C@H](Cc1c[nH]cn1)NC(=O)[C@H](C)NC(=O)[C@H](Cc1ccccc1)NC(=O)[C@H](Cc1ccc(O)cc1)NC(=O)[C@@H](NC(=O)[C@H](C)NC(=O)[C@H](CCC(=O)O)NC(=O)[C@H](CCC(=O)O)NC(=O)[C@H](CC(=O)O)NC(=O)/C=C/C(=O)O)C(C)C)C(=O)N[C@@H](CC(=O)O)C(=O)N[C@H](C(=O)N[C@H](C(=O)N[C@@H](Cc1c[nH]c2ccccc12)C(=O)O)[C@@H](C)CC)[C@@H](C)CC)C(=O)O [BX-225] (Fumaroyl-DEEAVYFAHK([AEEA-γGlu-Lauroyl])DIIW-OH),mRS-7D,"rat model of pMACO [2]; 19.8 µg/Kg, 1Time regimen",3.14±2.14
same,mRS-7D,rat model of pMACO [2]; [4],1.67±0.50
same,mRS-14D,"rat model of pMACO [2]; 19.8 µg/Kg, 1Time regimen",3.90±2.61
same,mRS-14D,rat model of pMACO [2]; [4],1.17±0.50
same,mRS-21D,"rat model of pMACO [2]; 19.8 µg/Kg, 1Time regimen",3.73±2.81
same,mRS-21D,rat model of pMACO [2]; [4],0.75±0.41
same,mRS-30D,"rat model of pMACO [2]; 19.8 µg/Kg, 1Time regimen",3.65±2.91
same,mRS-30D,rat model of pMACO [2]; [4],0.50±0.31
same,mRS-6 score on day 14 compared with the normal saline group and the IRL1620 three-dose group,rat model of pMACO [2]; [5],close to a significant difference
same,"mRS-6 scores, course from day 7, day 14, day 21, to day 30",rat model of pMACO [2]; [5],continuous improvement
same,"mRS-6 scores on days 7, 21, and 30 compared with the normal saline group and the IRL1620 three-dose group","rat model of pMACO [2]; pMCAO rats, 6.6 µg/Kg three-dose group, iv, P<0.05",significant differences
same,5 min Spontaneous Activity,rat model of pMACO [3]; [6],1.17±1.47
same,Beard Touch Reaction on Both Sides,rat model of pMACO [3]; [6],1.63±0.80
same,Body Symmetry,rat model of pMACO [3]; [6],0.63±0.80
same,Body Tactile Response on Both Sides,rat model of pMACO [3]; [6],1.60±0.77
same,Cage Climbing,rat model of pMACO [3]; [6],1.69± 0.85
same,Forelimb Extension Movement,rat model of pMACO [3]; [6],0.80±1.01
same,Total Score,rat model of pMACO [3]; [6],7.51± 5.58
same,5 min Spontaneous Activity,rat model of pMACO [3]; [7],2.89±0.33
same,Beard Touch Reaction on Both Sides,rat model of pMACO [3]; [7],2.70±0.25
same,Body Symmetry,rat model of pMACO [3]; [7],1.74±0.48
same,Body Tactile Response on Both Sides,rat model of pMACO [3]; [7],2.50±0.23
same,Cage Climbing,rat model of pMACO [3]; [7],2.30± 0.71
same,Forelimb Extension Movement,rat model of pMACO [3]; [7],1.87±0.52
same,Total Score,rat model of pMACO [3]; [7],13.99 ±1.49
same,5 min Spontaneous Activity,rat model of pMACO [3]; [8],1.25±1.54
same,Beard Touch Reaction on Both Sides,rat model of pMACO [3]; [8],1.50±0.65
same,Body Symmetry,rat model of pMACO [3]; [8],0.78±0.98
same,Body Tactile Response on Both Sides,rat model of pMACO [3]; [8],1.46±0.59
same,Cage Climbing,rat model of pMACO [3]; [8],1.79±0.98
same,Forelimb Extension Movement,rat model of pMACO [3]; [8],0.93+1.15
same,Total Score,rat model of pMACO [3]; [8],7.71± 5.82
same,5 min Spontaneous Activity,rat model of pMACO [3]; [9],3.00±0.00
same,Beard Touch Reaction on Both Sides,rat model of pMACO [3]; [9],2.39±0.13
same,Body Symmetry,rat model of pMACO [3]; [9],2.07±0.29
same,Body Tactile Response on Both Sides,rat model of pMACO [3]; [9],2.29±0.18
same,Cage Climbing,rat model of pMACO [3]; [9],2.81±0.15
same,Forelimb Extension Movement,rat model of pMACO [3]; [9],2.25±0.23
same,Total Score,rat model of pMACO [3]; [9],14.81 ±0.56
same,Garcia JH scores on days 21 and 30 compared with the normal saline group,rat model of pMACO [3]; [5],statistical differences
same,"Garcia JH scores, course from day 7, day 14, day 21, to day 30",rat model of pMACO [3]; [5],continuous improvement trend
